“And” between values parts separate entries of the source, which are not always exact repeats. Equal entries are not always repeated. Where two headings read alike, the source gives them in different places.
Experiments:
[1] = test system: influenza A virus WSN A/WSN/1933 (H1N1); parameters: species or system BALB/c mice; settings: mouse, in vivo
[2] = test system: influenza B virus Lee40; parameters: species or system BALB/c mice; settings: mouse, in vivo
[3] = molecular target: influenza A virus nucleoprotein (ANP) (Influenza A virus, UniProt P15682); settings: ITC; protein ANP
[4] = test system: influenza B virus Lee40; settings: A549 cells, MOI=1, 12 ng naproxen per dish, FIG. 8B
[5] = test system: influenza A virus WSN A/WSN/1933 (H1N1); settings: A549 cells, MOI=0.1, 12 ng naproxen per dish, FIG. 8A
[6] = molecular target: binding of BNP to CRM1 (Influenza B virus, UniProt P04665)
[7] = molecular target: influenza B virus nucleoprotein (BNP) (Influenza B virus, UniProt P04665); settings: ITC; protein BNP
[8] = molecular target: binding of ANP to CRM1 (Influenza A virus, UniProt P15682)
Sequence of binding of ANP to CRM1 (P15682 whole entry): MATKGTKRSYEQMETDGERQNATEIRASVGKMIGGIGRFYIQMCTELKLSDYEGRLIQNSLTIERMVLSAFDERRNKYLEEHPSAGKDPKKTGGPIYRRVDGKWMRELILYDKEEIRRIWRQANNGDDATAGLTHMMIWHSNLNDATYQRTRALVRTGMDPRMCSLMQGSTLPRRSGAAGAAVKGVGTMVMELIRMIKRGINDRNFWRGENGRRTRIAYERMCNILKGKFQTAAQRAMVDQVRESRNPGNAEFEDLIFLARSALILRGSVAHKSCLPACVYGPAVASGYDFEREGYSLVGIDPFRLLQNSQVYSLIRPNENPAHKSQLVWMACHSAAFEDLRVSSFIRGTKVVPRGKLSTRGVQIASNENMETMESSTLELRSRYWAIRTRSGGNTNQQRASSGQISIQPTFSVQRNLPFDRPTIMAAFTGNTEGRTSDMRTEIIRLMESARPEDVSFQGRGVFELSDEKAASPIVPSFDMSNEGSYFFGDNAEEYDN

Sequence of influenza A virus nucleoprotein (ANP) (P15682 whole entry): as above
Sequence of influenza B virus nucleoprotein (BNP) (P04665 whole entry): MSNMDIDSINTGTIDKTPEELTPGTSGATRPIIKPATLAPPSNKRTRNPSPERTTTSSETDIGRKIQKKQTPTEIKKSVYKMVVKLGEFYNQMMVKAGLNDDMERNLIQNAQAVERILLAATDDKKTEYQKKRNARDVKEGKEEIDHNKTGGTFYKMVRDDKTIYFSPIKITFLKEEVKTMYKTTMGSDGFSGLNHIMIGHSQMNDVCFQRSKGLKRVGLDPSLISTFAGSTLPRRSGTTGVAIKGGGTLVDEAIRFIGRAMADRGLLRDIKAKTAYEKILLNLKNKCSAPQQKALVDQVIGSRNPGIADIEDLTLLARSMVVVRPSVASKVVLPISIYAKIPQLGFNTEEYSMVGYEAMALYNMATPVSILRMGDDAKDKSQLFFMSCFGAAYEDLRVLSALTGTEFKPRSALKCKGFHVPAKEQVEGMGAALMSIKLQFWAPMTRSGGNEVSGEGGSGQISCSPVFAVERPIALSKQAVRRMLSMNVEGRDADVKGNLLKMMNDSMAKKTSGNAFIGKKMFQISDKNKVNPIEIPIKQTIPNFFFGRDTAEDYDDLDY
Sequence of binding of BNP to CRM1 (P04665 whole entry): as above

SMILES | body weight course after infection [1] | lung index (lung mass/body weight) [1] | lung injuries (macroscopical lesions) [1] | survival rate [1] [%] | viral load of the lung, treatment effect [1] | body weight course after infection [2] | survival rate [2] [%] | n (stoichiometry) [3] | ΔH [3] [kcal/mol] | ΔS [3] [J/mol · K] | virus titer versus untreated cells [4] | virus titer versus untreated cells [5] | lung injuries (macroscopical lesions) [2] | viral load of the lung, treatment effect [2] | survival rate ([2]; ip) | binding of BNP to CRM1 [6] | n (stoichiometry) [7] | ΔH [7] [kcal/mol] | ΔS [7] [J/mol · K] | binding of ANP to CRM1 [8]
CCOC(=O)C1=C[C@@H](OC(CC)CC)[C@H](NC(C)=O)[C@@H](N)C1 [oseltamivir] | slowly recovered | lung indexes were lower | lung injuries were milder | 100 | better | slowly recovered | 37.5 |  |  |  |  |  |  |  |  |  |  |  |  | 
COc1ccc2cc(C(C)C(=O)O)ccc2c1 (stereo not drawn) [naproxen, (+) α-methyl-6-methoxy-2-naphthaleneacetic acid] | slowly recovered |  | lung injuries were milder |  | better | slowly recovered |  | 1.23 | -1.33 | 64.76 | significant decrease in virus titer | significant decrease in virus titer | lung injuries were milder | better | 75% and 100% | did not bind to CRM1 | 0.93 | -0.325 | 138.40 | did not bind to CRM1

From patent publication US20200297798A1, “KEY AMINO ACID SITES […] EXPORT OF NUC[…] INFLUENZA A AND B VIRUSES AND USE THEREOF AS ANTI-INFLUENZA VIRUS DRUG TARGETS” (INSTITUTE OF MICROBIOLOGY, CHINESE ACADEMY OF SCIENCES, priority 2017, published 2020)
